Converted amounts (≈) assume the structure as drawn. “And” between values parts separate entries of the source, which are not always exact repeats. Equal entries are not always repeated.
Tests used:
[1] = NO scavenging activity (sodium nitroprusside / Griess reagent); conditions: for Nitric Oxide Percentage Scavenging Activity at 25 µg/mL / Nitric Oxide Percentage Scavenging Activity at 50 µg/mL / Nitric Oxide Percentage Scavenging Activity at 100 µg/mL: mean ± SD of three parallel measurements; for IC50 (nitric oxide scavenging): NO scavenging
urease = urease (Canavalia ensiformis, UniProt P07374); assay: biochemical; format: biochemical; conditions: for inhibition at 25 µg/mL: read-out: Percentage inhibition at 25 µg/mL; for inhibition at 50 µg/mL: read-out: Percentage inhibition at 50 µg/mL
urease, sequence (P07374 whole entry, looked up): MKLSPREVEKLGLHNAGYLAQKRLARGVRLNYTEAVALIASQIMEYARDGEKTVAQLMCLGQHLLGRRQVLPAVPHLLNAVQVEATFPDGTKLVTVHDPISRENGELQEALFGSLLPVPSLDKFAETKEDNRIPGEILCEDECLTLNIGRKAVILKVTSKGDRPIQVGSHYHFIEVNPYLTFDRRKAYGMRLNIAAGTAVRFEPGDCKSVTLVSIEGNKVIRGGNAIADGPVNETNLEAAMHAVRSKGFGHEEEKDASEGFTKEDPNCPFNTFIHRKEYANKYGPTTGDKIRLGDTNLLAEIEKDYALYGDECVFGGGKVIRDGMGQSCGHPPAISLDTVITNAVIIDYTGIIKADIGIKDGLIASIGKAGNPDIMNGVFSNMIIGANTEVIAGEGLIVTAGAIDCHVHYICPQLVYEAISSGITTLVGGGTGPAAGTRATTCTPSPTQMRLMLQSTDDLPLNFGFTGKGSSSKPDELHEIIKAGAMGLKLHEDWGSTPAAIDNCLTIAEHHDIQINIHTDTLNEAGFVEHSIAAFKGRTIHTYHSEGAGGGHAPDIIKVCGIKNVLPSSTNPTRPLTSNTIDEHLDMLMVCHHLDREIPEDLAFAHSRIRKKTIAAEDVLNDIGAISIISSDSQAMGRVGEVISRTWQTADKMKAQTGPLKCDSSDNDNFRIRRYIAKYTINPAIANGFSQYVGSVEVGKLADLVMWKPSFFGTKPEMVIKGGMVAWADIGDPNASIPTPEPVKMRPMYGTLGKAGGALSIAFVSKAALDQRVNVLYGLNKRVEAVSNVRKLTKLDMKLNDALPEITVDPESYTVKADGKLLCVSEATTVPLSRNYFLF
Method: The newly synthesized compounds 3a–e were examined for their urease inhibition activities in vitro at 25 and 50 μg/mL concentrations. […] Thus, enzyme stops catalyzing hydrolysis and the activity of the enzyme is inhibited.
The urease inhibitory activity of the synthesized compounds 2, 3a–e, 4 was determined as follows: phosphate buffer (pH 7, 200 µL) containing 1 unit of enzyme was mixed with phosphate buffer (230 µL) and of a particular stock solution (20 µL, thiourea or the test compound). The reaction mixture was incubated at 25 °C for 5 min. After the incubation period urea stock solution (400 µL, 20 mM) was added. Calibration mixture was prepared with no urea solution. All test tubes were further incubated at 40 °C for the action of urease for 10 min. This was followed by the addition of phenol hypochlorite reagent (1150 µL). Tubes were again incubated at 56 °C for 25 min. […] The IC50 values were determined using the EZ-fit kinetic data base.

SMILES	Nitric Oxide Percentage Scavenging Activity at 25 µg/mL [1]	Nitric Oxide Percentage Scavenging Activity at 50 µg/mL [1]	Nitric Oxide Percentage Scavenging Activity at 100 µg/mL [1]	IC50 (urease)	inhibition at 25 µg/mL (urease)	inhibition at 50 µg/mL (urease)	IC50 (nitric oxide scavenging) [1]	melting point	IC50 (urease inhibition) (urease; urease, EZ-fit)
O=C1O[C@H]([C@@H](O)CO)C(O)=C1O [Ascorbic acid, reference compound]	40.5 ± 0.01%	70.50 ± 0.91%	99.5 ± 0.91%	–	–	–	–	–	–
Nc1nc2ccc(Br)cc2s1 [Compound 2, 6-Bromobenzo[d]thiazole-2-amine]	20 ± 0.004%	48 ± 0.0007%	90 ± 0.007% and 90 ± 0.0007%	124 µM	43 ± 0.0034%	95 ± 0.005%	57.8 µg/mL (≈ 252 µM)	–	–
Cc1ccc(-c2ccc3nc(N)sc3c2)cc1 [Compound 3a, 6-p-Tolylbenzo[d]thiazole-2-amine]	24 ± 0.003%	67 ± 0.009% and 56 ± 0.001%	95 ± 0.001%	113 µM	46 ± 0.005%	90.49 ± 0.002%	38.19 µg/mL (≈ 159 µM)	184 to 186 °C	–
Nc1nc2ccc(-c3ccc(Cl)cc3)cc2s1 [Compound 3b, 6-(4-Chlorophenyl)benzo[d]thiazole-2-amine]	17 ± 0.006%	34 ± 0.005%	66 ± 0.005%	117 µM	39 ± 0.0012%	88.19 ± 0.007%	75 µg/mL (≈ 288 µM)	194 to 196 °C	–
COc1ccc(-c2ccc3nc(N)sc3c2)cc1 [Compound 3c, 6-(4-Methoxyphenyl)benzo[d]thiazole-2-amine]	31 ± 0.022%	67 ± 0.002%	–	111 µM	44 ± 0.005%	86.24 ± 0.001%	38.19 µg/mL (≈ 149 µM)	165 to 167 °C	–
Nc1nc2ccc(-c3cc(C(F)(F)F)cc(C(F)(F)F)c3)cc2s1 [Compound 3d, 6-(3,5-bis(Triflouromethyl)phenyl)benzo[d]thiazole-2-amine]	10 ± 0.01%	23 ± 0.009%	63 ± 0.009%	79.7 µM	43 ± 0.007%	88.6 ± 0.002%	83.75 µg/mL (≈ 231 µM)	180 to 182 °C	–
Nc1nc2ccc(-c3ccccc3)cc2s1 [Compound 3e, 6-Phenylbenzo[d]thiazole-2-amine]	9 ± 0.007%	22 ± 0.001%	52 ± 0.001%	116 µM	48 ± 0.005%	85 ± 0.002%	96.66 µg/mL (≈ 427 µM)	–	–
CC(=O)Nc1nc2ccc(Br)cc2s1 [Compound 4, N-(6-Bromobenzo[d]thiazol-2-yl)acetamide]	–	–	–	112 µM	39 ± 0.001%	89 ± 0.009%	–	–	–
NC(N)=S [Thiourea, reference compound]	–	–	–	–	–	–	–	–	34.65 µg/mL (≈ 455 µM)

Reference: publication PMC6269778, “Efficient Synthesis of 2-Amino-6-Arylbenzothiazoles via Pd(0) Suzuki Cross Coupling Reactions: Potent Urease Enzyme Inhibition and Nitric Oxide Scavenging Activities of the Products” (Molecules, 2013)
